Common to all, as to type: functional
The subject of experiment [1] is Plasma. The experiment can be described thus: Anticoagulant activity in human plasma assessed as activated partial thromboplastin time at 0.03 mg/ml after 15 mins.
For experiment [2], the system named is Plasma. The experiment can be described thus: Anticoagulant activity in human plasma assessed as activated partial thromboplastin time at 0.01 mg/ml after 15 mins.
In experiment [3] the test system is Plasma. Description: Anticoagulant activity in human plasma assessed as activated partial thromboplastin time at 1 mg/ml after 15 mins.
Experiment [4] deals with Plasma. Description: Anticoagulant activity in human plasma assessed as activated partial thromboplastin time at 0.3 mg/ml after 15 mins.
Experiment [5] deals with Plasma. Description: Anticoagulant activity in human plasma assessed as activated partial thromboplastin time at 0.1 mg/ml after 15 mins.

Non-standard residues stand in square brackets, D forms with d. Residues, ends and D or L forms follow the SMILES beside them. *: point of attachment. X1 = O=C([C@H](Cc1ccc(OS(=O)(=O)O)cc1)NS(=O)(=O)O)*; sY = N[C@@H](Cc1ccc(OS(=O)(=O)O)cc1)C(=O)O

`N[C@@H](Cc1ccc(OS(=O)(=O)[O-])cc1)C(=O)N[C@@H](Cc1ccc(OS(=O)(=O)[O-])cc1)C(=O)N[C@@H](Cc1ccc(OS(=O)(=O)[O-])cc1)C(=O)N[C@@H](Cc1ccc(OS(=O)(=O)[O-])cc1)C(=O)N[C@@H](Cc1ccc(OS(=O)(=O)[O-])cc1)C(=O)N[C@@H](Cc1ccc(OS(=O)(=O)[O-])cc1)C(=O)N[C@@H](Cc1ccc(OS(=O)(=O)[O-])cc1)C(=O)O.[Na+].[Na+].[Na+].[Na+].[Na+].[Na+].[Na+]` (H-[sY][sY][sY][sY][sY][sY][sY]-OH): the APTT in experiment [1] is 30.5 s; in experiment [2], 30.4 s; in experiment [3] it was 40.6 s; in experiment [4], 32.4 s; in experiment [5] it was 31 s.
For `N[C@@H](Cc1ccc(OS(=O)(=O)[O-])cc1)C(=O)N[C@@H](Cc1ccc(OS(=O)(=O)[O-])cc1)C(=O)N[C@@H](Cc1ccc(OS(=O)(=O)[O-])cc1)C(=O)N[C@@H](Cc1ccc(OS(=O)(=O)[O-])cc1)C(=O)N[C@@H](Cc1ccc(OS(=O)(=O)[O-])cc1)C(=O)N[C@@H](Cc1ccc(OS(=O)(=O)[O-])cc1)C(=O)N[C@@H](Cc1ccc(OS(=O)(=O)[O-])cc1)C(=O)N[C@@H](Cc1ccc(OS(=O)(=O)[O-])cc1)C(=O)N[C@@H](Cc1ccc(OS(=O)(=O)[O-])cc1)C(=O)N[C@@H](Cc1ccc(OS(=O)(=O)[O-])cc1)C(=O)O.[Na+].[Na+].[Na+].[Na+].[Na+].[Na+].[Na+].[Na+].[Na+].[Na+]` (H-[sY][sY][sY][sY][sY][sY][sY][sY][sY][sY]-OH), in that order: 32.1 s, 30.6 s, 153.7 s, 90.5 s and 41 s.
With `O=C(O)[C@H](Cc1ccc(OS(=O)(=O)[O-])cc1)NC(=O)[C@H](Cc1ccc(OS(=O)(=O)[O-])cc1)NC(=O)[C@H](Cc1ccc(OS(=O)(=O)[O-])cc1)NC(=O)[C@H](Cc1ccc(OS(=O)(=O)[O-])cc1)NC(=O)[C@H](Cc1ccc(OS(=O)(=O)[O-])cc1)NC(=O)[C@H](Cc1ccc(OS(=O)(=O)[O-])cc1)NS(=O)(=O)[O-].[Na+].[Na+].[Na+].[Na+].[Na+].[Na+].[Na+]` (X1-[sY][sY][sY][sY][sY]-OH), the APTT in experiment [1] is listed as 31.2 s; in experiment [2], 30.8 s; in experiment [3], 64.8 s; in experiment [4], 35.7 s; in experiment [5] it was 32.3 s.
With `O=C(O)[C@H](Cc1ccc(OS(=O)(=O)[O-])cc1)NC(=O)[C@H](Cc1ccc(OS(=O)(=O)[O-])cc1)NC(=O)[C@H](Cc1ccc(OS(=O)(=O)[O-])cc1)NC(=O)[C@H](Cc1ccc(OS(=O)(=O)[O-])cc1)NC(=O)[C@H](Cc1ccc(OS(=O)(=O)[O-])cc1)NC(=O)[C@H](Cc1ccc(OS(=O)(=O)[O-])cc1)NC(=O)[C@H](Cc1ccc(OS(=O)(=O)[O-])cc1)NC(=O)[C@H](Cc1ccc(OS(=O)(=O)[O-])cc1)NC(=O)[C@H](Cc1ccc(OS(=O)(=O)[O-])cc1)NS(=O)(=O)[O-].[Na+].[Na+].[Na+].[Na+].[Na+].[Na+].[Na+].[Na+].[Na+].[Na+]` (X1-[sY][sY][sY][sY][sY][sY][sY][sY]-OH), the APTT in experiment [1] came to 33.1 s; in experiment [2] it was 31.9 s; in experiment [3] it was 95.8 s; in experiment [4], 45.7 s; in experiment [5] it was 36.5 s.
For the molecule `O=C([O-])[C@H](Cc1ccc(OS(=O)(=O)[O-])cc1)NC(=O)[C@H](Cc1ccc(OS(=O)(=O)[O-])cc1)NC(=O)[C@H](Cc1ccc(OS(=O)(=O)[O-])cc1)NC(=O)[C@H](Cc1ccc(OS(=O)(=O)[O-])cc1)NC(=O)[C@H](Cc1ccc(OS(=O)(=O)[O-])cc1)NC(=O)[C@H](Cc1ccc(OS(=O)(=O)[O-])cc1)NC(=O)[C@H](Cc1ccc(OS(=O)(=O)[O-])cc1)NC(=O)[C@H](Cc1ccc(OS(=O)(=O)[O-])cc1)NC(=O)[C@H](Cc1ccc(OS(=O)(=O)[O-])cc1)NC(=O)[C@H](Cc1ccc(OS(=O)(=O)[O-])cc1)NC(=O)[C@H](Cc1ccc(OS(=O)(=O)[O-])cc1)NC(=O)[C@H](Cc1ccc(OS(=O)(=O)[O-])cc1)NS(=O)(=O)[O-].[Na+].[Na+].[Na+].[Na+].[Na+].[Na+].[Na+].[Na+].[Na+].[Na+].[Na+].[Na+].[Na+].[Na+]` (X1-[sY][sY][sY][sY][sY][sY][sY][sY][sY][sY][sY]-OH), the APTT came to 37.6 s in experiment [1]; 32 s in experiment [2]; 172.1 s in experiment [3]; 75.7 s in experiment [4]; 50.3 s in experiment [5].

Source of the values: ChEMBL document CHEMBL1143892, “Oligo(tyrosine sulfate)s as heparin pentasaccharide mimic: evaluation by surface noncovalent affinity mass spectrometry” (2008).
